Reference: paper PMC10725991, “Kaempferol is a novel antiviral agent against channel catfish virus infection through blocking viral attachment and penetration in vitro” (Frontiers in Veterinary Science, 2023)

System: CCO cells
Assay: Compounds cytotoxicity assay (CCK-8 cell viability)
Type: cell-based
Details: channel catfish, 72 h
Description: The cytotoxicity effects of the selected compounds were detected in CCO cells by the cell viability assay. In brief, the CCO cells were seeded in 96-well plates and cultured to reach approximately 90% confluence in each well at 28°C. Subsequently, the monolayer cells were exposed to a maintenance medium with the tested compounds at different concentrations or DMSO for 72 h. Cell Counting Kit-8 (Beyotime, China) was used to measure the cell viability according to the manufacturer’s protocol after 72 h incubation. The optical density at 450 nm was measured using a Spark microplate reader (TECAN, Switzerland). Then, the maximum safe concentration (≥ 90% cell survived, SC90) of compounds to CCO cells was calculated according to the cell viability.
All data were analyzed with GraphPad Prism 8.0. Viral titers were log10 transformed prior to statistical analyses. The SC90 values were calculated using probit analysis. The data are expressed as the arithmetic mean ± standard deviation (SD) and were analyzed by one-way ANOVA with multiple comparisons test. Statistical significance was defined as *p < 0.05, **p < 0.01.
Figure 1 Cytotoxicity assay. The CCO cells were treated with 12 tested compounds with different concentrations in a 96-well plate for 72 h, and then the cell viability was measured by CCK-8. (A) Kaempferol, (B) Tannic acid, (C) P-Coumaric acid, (D) Magnolol, (E) Baicalein, (F) Genistein, (G) Mangiferin, (H) Rosmarinic acid, (I) Artemisinin, (J) Myricetin, (K) Ginkgolic acid, (L) Shikonin. Data represent mean ± SD normalized to values for DMSO treated group. The SC90 was analyzed and calculated using probit analysis. TEXT PRINTED IN THE PICTURE: (A) Kaempferol: SC90 = 47.53 μg/ml | (B) Tannic acid: SC90 = 90.02 μg/ml | (C) P-Coumaric acid: SC90 ≥500 μg/ml | (D) Magnolol: SC90 = 10.02 μg/ml | (E) Baicalein: SC90 = 29.73 μg/ml | (F) Genistein: SC90 = 13.66 μg/ml | (G) Mangiferin: SC90 ≥500 μg/ml | (H) Rosmarinic acid: SC90 = 46.37 μg/ml | (I) Artemisinin: SC90 ≥500 μg/ml | (J) Myricetin: SC90 = 346.19 μg/ml | (K) Ginkgolic acid: SC90 = 10.89 μg/ml | (L) Shikonin: SC90 = 54.44 μg/ml DOUBTS OF THE COPYIST ABOUT THIS PICTURE: All SC90 values are in small print, so 3, 5, 6, 8 and 9 are hard to tell apart / Kaempferol, SC90: 47.53 (5 or 3 uncertain) / Tannic acid, SC90: 90.02 (9 or 8 uncertain) / Baicalein, SC90: 29.73 (9 or 3 uncertain) / Genistein, SC90: 13.66 (3 and 6 uncertain) / Rosmarinic acid, SC90: 46.37 (6 and 3 uncertain) / Myricetin, SC90: 346.19 (3, 6 and 9 uncertain) / Ginkgolic acid, SC90: 10.89 (8 and 9 uncertain) / Shikonin, SC90: 54.44 (5 uncertain) / P-Coumaric acid, Mangiferin, Artemisinin, SC90: sign ≥ or >; 500 (5 uncertain)

Compound	SC90 (maximum safe concentration, ≥ 90% cell survived)
C[C@@H]1CC[C@H]2[C@@H](C)C(=O)O[C@@H]3O[C@@]4(C)CC[C@@H]1[C@]32OO4 [Artemisinin, reference compound]	≥ 500 µg/mL
O=c1cc(-c2ccccc2)oc2cc(O)c(O)c(O)c12 [Baicalein]	29.73 µg/mL
O=c1c(O)c(-c2cc(O)c(O)c(O)c2)oc2cc(O)cc(O)c12 [Myricetin]	346.19 µg/mL
